{"source": "patent US20250108011A1", "about": "“ORAL DOSAGE FORMS OF A […] ACTIVE ACID-LABILE SALT AND METHODS AND USES RELATED THERETO” (Rijksuniversiteit Groningen, priority 2022, published 2025)", "origin": "cited, not measured here", "key": {"[1]": {"test_system": "pregnant Dahl salt-sensitive rats", "conditions": "ref [23]"}, "hypercalciuric rats": {"test_system": "hypercalciuric rats", "conditions": "oral, ref [22]"}, "calciphylaxis": {"test_system": "calciphylaxis", "conditions": "oral maintenance therapy, ref [21]"}}}
{"smiles": "O=S([O-])([O-])=S.[Na+].[Na+]", "note": "[STS, Sodium thiosulfate]", "values": [{"measurement": "effect on blood pressure", "setting": "[1]", "result": "antihypertensive effects"}, {"measurement": "effect on nephrolithiasis", "setting": "hypercalciuric rats", "result": "reduce calcium phosphate nephrolithiasis"}, {"measurement": "renal effect of oral STS as a single treatment regimen", "setting": "hypertensive rats; oral, ref [19]", "result": "renoprotective effects"}, {"measurement": "effect as a single treatment regimen in hypertensive rats", "setting": "hypertensive rats; refs [17,18]", "result": "reduced blood pressure, proteinuria, kidney and heart damage"}, {"measurement": "cardiac effect of oral STS", "setting": "hypertensive rats; same model, ref [20]", "result": "Cardioprotective effects"}, {"measurement": "tolerability of oral administration", "setting": "calciphylaxis", "result": "well tolerated with no reported side effects"}]}
